Assay results from ChEMBL document CHEMBL1201862, “PubChem BioAssay data set” (2004).
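Growth conditions: 96-well plates. Treatment: test compound, 48 hours, 5 concentrations. Analysis: linear interpolation between bracketing concentrations; unreached endpoints set to highest concentration. GI50: concentration for 50% inhibition of growth.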 Calls of active or inactive are those of the source. Rule as the data show it: active = GI50 up to about 1.1 µM and inactive = higher.

Key:
Test in all cases: DTP human tumour cell line panel, 48 h
786-0 = test system: 786-0
A498 = test system: A498
CCRF-CEM = test system: CCRF-CEM
HCC 2998 = test system: HCC 2998
HL-60 = test system: HL-60
HOP-62 = test system: HOP-62
K562 = test system: K562
MCF7 = test system: MCF7
MDA-MB-435 = test system: MDA-MB-435
Malme-3M = test system: Malme-3M
NCI-H226 = test system: NCI-H226
NCI/ADR-RES = test system: NCI/ADR-RES
OVCAR-8 = test system: OVCAR-8
RPMI-8226 = test system: RPMI-8226
SF-539 = test system: SF-539
SK-MEL-28 = test system: SK-MEL-28
SK-MEL-5 = test system: SK-MEL-5
SN12C = test system: SN12C
T47D = test system: T47D
UO-31 = test system: UO-31

Measured: GI50

COc1ccc(N2CN3OC(=O)N(c4ccc(OC)cc4)[C@@]3(c3ccccc3)C2)cc1
inactive: 786-0 51.1 µM | A498 19.5 µM | CCRF-CEM 6 µM | HCC 2998 11.5 µM | HL-60 2.77 µM | HOP-62 32.6 µM | K562 4.02 µM | MCF7 16.9 µM | MDA-MB-435 2.4 µM | Malme-3M 10.8 µM | NCI-H226 47.6 µM | NCI/ADR-RES 9.48 µM | OVCAR-8 33.3 µM | RPMI-8226 18.7 µM | SF-539 17 µM | SK-MEL-28 34.5 µM | SK-MEL-5 11.9 µM | SN12C 31.6 µM | T47D 14.3 µM | UO-31 32.9 µM

NCc1ccc(-c2ccc(CN)s2)s1
inactive: 786-0 > 100 µM | A498 1.22 µM | CCRF-CEM > 100 µM | HCC 2998 > 100 µM | HL-60 > 100 µM | HOP-62 > 100 µM | K562 > 100 µM | MCF7 44 µM | MDA-MB-435 > 100 µM | Malme-3M > 100 µM | NCI-H226 41.1 µM | NCI/ADR-RES 13.1 µM | OVCAR-8 86.5 µM | RPMI-8226 > 100 µM | SF-539 > 100 µM | SK-MEL-28 > 100 µM | SK-MEL-5 > 100 µM | SN12C > 100 µM | T47D 69.8 µM | UO-31 > 100 µM
